Biological target: T1, human GPR119 (hGPR119) (Homo sapiens, UniProt Q8TDV5)
T1 construct: expressed in transfected cells
T1 sequence (Q8TDV5 1-335): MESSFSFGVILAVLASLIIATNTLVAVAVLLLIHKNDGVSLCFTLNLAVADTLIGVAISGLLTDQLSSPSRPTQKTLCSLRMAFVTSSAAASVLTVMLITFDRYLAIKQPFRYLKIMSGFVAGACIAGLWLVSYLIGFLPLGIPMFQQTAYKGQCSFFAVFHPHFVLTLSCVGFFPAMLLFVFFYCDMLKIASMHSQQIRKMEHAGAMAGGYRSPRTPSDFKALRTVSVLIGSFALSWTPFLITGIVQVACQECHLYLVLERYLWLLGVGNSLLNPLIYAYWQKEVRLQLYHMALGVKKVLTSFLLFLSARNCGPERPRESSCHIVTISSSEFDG
Assay: cAMP accumulation assay (cAMP Gs dynamic HTRF kit)
Type: cell-based
Conditions: CHO-K1 cells stably expressing hGPR119, 4-parameter fit; for Emax: 1 h, % activity normalized to Max/Min controls; for EC50: cAMP accumulation
In short: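 Read-out is HTRF 665/620 nm ratio after 1 h detection at ambient temperature, converted to % activity against positive and negative controls, EC50 and Max activity by 4-parameter fit. Compounds were titrated onto ~10,000 thawed hGPR119-CHO-K1 cells/well for 60 min at 37° C/5% CO2.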

| Emax | EC50 | SMILES |
| --- | --- | --- |
| 100 to 130% | ≤ 100 nM | CCOc1cnc(N2CCC(CCCOc3cc(F)c(CC(=O)N4CC(CNC[C@H](O)[C@@H](O)[C@H](O)[C@H](O)CO)C4)c(F)c3)CC2)nc1 [Example 114, 2-[4-[3-[1-(5-ethoxypyrimidin-2-yl)-4-piperidyl]propoxy]-2,6-difluoro-phenyl]-1-[3-[[[(2S,3R,4R,5R)-2,3,4,5,6-pentahydroxyhexyl]amino]methyl]azetidin-1-yl]ethanone] |
| 100 to 130% | 100 to 1000 nM | O=C(Cc1c(F)cc(OCCC2CC3(CCN(c4ncc(Cl)cn4)CC3)C2)cc1F)N1CC(CNC[C@H](O)[C@@H](O)[C@H](O)[C@H](O)CO)C1 [Example 115, 2-[4-[2-[7-(5-chloropyrimidin-2-yl)-7-azaspiro[3.5]nonan-2-yl]ethoxy]-2,6-difluoro-phenyl]-1-[3-[[[(2S,3R,4R,5R)-2,3,4,5,6-pentahydroxyhexyl]amino]methyl]azetidin-1-yl]ethanone] |
| ≥ 130% | ≤ 100 nM | O=C(Cc1c(F)cc(OCCCC2CC3(CCN(c4ncc(Cl)cn4)CC3)C2)cc1F)N1CC(CNC[C@H](O)[C@@H](O)[C@H](O)[C@H](O)CO)C1 [Example 116, 2-[4-[3-[7-(5-chloropyrimidin-2-yl)-7-azaspiro[3.5]nonan-2-yl]propoxy]-2,6-difluoro-phenyl]-1-[3-[[[(2S,3R,4R,5R)-2,3,4,5,6-pentahydroxyhexyl]amino]methyl]azetidin-1-yl]ethanone] |
| 100 to 130% | 100 to 1000 nM | CC(C)OC(=O)N1CCC2(CC1)CC(CCCOc1ccc(CC(=O)N3CC(CNC[C@H](O)[C@@H](O)[C@H](O)[C@H](O)CO)C3)c(F)c1)C2 [Example 117, isopropyl 2-[3-[3-fluoro-4-[2-oxo-2-[3-[[[(2S,3R,4R,5R)-2,3,4,5,6-pentahydroxyhexyl]amino]methyl]azetidin-1-yl]ethyl]phenoxy]propyl]-7-azaspiro[3.5]nonane-7-carboxylate] |
| 100 to 130% | 100 to 1000 nM | CC(C)OC(=O)N1CCC2(CC1)CC(CCOc1ccc(CC(=O)N3CC(CNC[C@H](O)[C@@H](O)[C@H](O)[C@H](O)CO)C3)c(F)c1)C2 [Example 118, isopropyl 2-[2-[3-fluoro-4-[2-oxo-2-[3-[[[(2S,3R,4R,5R)-2,3,4,5,6-pentahydroxyhexyl]amino]methyl]azetidin-1-yl]ethyl]phenoxy]ethyl]-7-azaspiro[3.5]nonane-7-carboxylate] |
| 100 to 130% | ≤ 100 nM | O=C(Cc1ccc(OCC2CC(C3CCN(c4ncc(Cl)cn4)CC3)C2)cc1F)N1CC(CNC[C@H](O)[C@@H](O)[C@H](O)[C@H](O)CO)C1 (stereo partly drawn) [Example 120, 2-[4-[ [3-[1-(5-chloropyrimidin-2-yl)-4-piperidyl]cyclobutyl]methoxy]-2-fluoro-phenyl]-1-[3-[[[(2S,3R,4R,5R)-2,3,4,5,6-pentahydroxyhexyl]amino]methyl]azetidin-1-yl]ethanone] |
| 100 to 130% | ≤ 100 nM | COCC1(CNC[C@H](O)[C@@H](O)[C@H](O)[C@H](O)CO)CCN(C(=O)Cc2ccc(OCCCC3CCN(c4ncc(Cl)cn4)CC3)cc2F)C1 (stereo partly drawn) [Example 121, 2-[4-[3-[1-(5-chloropyrimidin-2-yl)-4-piperidyl]propoxy]-2-fluoro-phenyl]-1-[3-(methoxymethyl)-3-[[[r(2S,3R,4R,5R)-2,3,4,5,6-pentahydroxyhexyl]amino]methyl]pyrrolidin-1-yl]ethanone] |
| 100 to 130% | ≤ 100 nM | COCC1(CNCC(CO)(CO)CO)CCN(C(=O)Cc2ccc(OCCCC3CCN(c4ncc(Cl)cn4)CC3)cc2F)C1 (centres unmarked) [Example 122, 2-[4-[3-[1-(5-chloropyrimidin-2-yl)-4-piperidyl]propoxy]-2-fluoro-phenyl]-1-[3-[[[3-hydroxy-2,2-bis(hydroxymethyl)propyl]amino]methyl]-3-(methoxymethyl)pyrrolidin-1-yl]ethanone] |
| 100 to 130% | 100 to 1000 nM | O=C(Cc1ccc(OCCC2CC(C3CCN(c4ncc(Cl)cn4)CC3)C2)cc1F)N1CC(CNC[C@H](O)[C@@H](O)[C@H](O)[C@H](O)CO)C1 (stereo partly drawn) [Example 123, 2-[4-[2-[3-[1-(5-chloropyrimidin-2-yl)-4-piperidyl]cyclobutyl]ethoxy]-2-fluoro-phenyl]-1-[3-[[[(2S,3R,4R,5R)-2,3,4,5,6-pentahydroxyhexyl]amino]methyl]azetidin-1-yl]ethanone] |
| 100 to 130% | ≤ 100 nM | O=C(Cc1c(F)cc(OCCC2CC(C3CCN(c4ncc(Cl)cn4)CC3)C2)cc1F)N1CC(CNC[C@H](O)[C@@H](O)[C@H](O)[C@H](O)CO)C1 (stereo partly drawn) [Example 124, 2-[4-[2-[3-[1-(5-chloropyrimidin-2-yl)-4-piperidyl]cyclobutyl]ethoxy]-2,6-difluoro-phenyl]-1-[3-[[[(2S,3R,4R,5R)-2,3,4,5,6-pentahydroxyhexyl]amino]methyl]azetidin-1-yl]ethanone] |
| 100 to 130% | 100 to 1000 nM | O=C(Cc1ccc(OCCCC2CCN(C(=O)OC3(C(F)(F)F)COC3)CC2)cc1F)N1CC(CNC[C@H](O)[C@@H](O)[C@H](O)[C@H](O)CO)C1 [Example 125, [3-(trifluoromethyl)oxetan-3-yl] 4-[3-[3-fluoro-4-[2-oxo-2-[3-[[[(2S,3R,4R,5R)-2,3,4,5,6-pentahydroxyhexyl]amino]methyl]azetidin-1-yl]ethyl]phenoxy]propyl]piperidine-1-carboxylate] |
| 100 to 130% | 100 to 1000 nM | O=C(Cc1c(F)cc(OCCCC2CCN(C(=O)OC3(C(F)(F)F)COC3)CC2)cc1F)N1CC(CNC[C@H](O)[C@@H](O)[C@H](O)[C@H](O)CO)C1 [Example 126, [3-(trifluoromethyl)oxetan-3-yl] 4-[3-[3,5-difluoro-4-[2-oxo-2-[3-[[[(2S,3R,4R,5R)-2,3,4,5,6-pentahydroxyhexyl]amino]methyl]azetidin-1-yl]ethyl]phenoxy]propyl] piperidine-1-carboxylate] |
| ≥ 130% | ≤ 100 nM | O=C(NC[C@H](O)[C@@H](O)[C@H](O)[C@H](O)CO)[C@H]1CCN(C(=O)Cc2ccc(OCCCC3CCN(c4ncc(Cl)cn4)CC3)cc2F)C1 [Example 127, (3S)-1-[2-[4-[3-[1-(5-chloropyrimidin-2-yl)-4-piperidyl]propoxy]-2-fluoro-phenyl]acetyl]-N-[(2S,3R,4R,5R)-2,3,4,5,6-pentahydroxyhexyl]pyrrolidine-3-carboxamide] |
| ≥ 130% | ≤ 100 nM | O=C(NC[C@H](O)[C@@H](O)[C@H](O)[C@H](O)CO)[C@H]1CCN(C(=O)Cc2c(F)cc(OCCCC3CCN(c4ncc(Cl)cn4)CC3)cc2F)C1 [Example 128, (3S)-1-[2-[4-[3-[1-(5-chloropyrimidin-2-yl)-4-piperidyl]propoxy]-2,6-difluoro-phenyl]acetyl]-N-[(2S,3R,4R,5R)-2,3,4,5,6-pentahydroxyhexyl]pyrrolidine-3-carboxamide] |
| 100 to 130% | ≤ 100 nM | CCOc1cnc(N2CCC(CCCOc3cc(F)c(CC(=O)N4CC[C@H](C(=O)NC[C@H](O)[C@@H](O)[C@H](O)[C@H](O)CO)C4)c(F)c3)CC2)nc1 [Example 130, (3S)-1-[2-[4-[3-[1-(5-ethoxypyrimidin-2-yl)-4-piperidyl]propoxy]-2,6-difluoro-phenyl]acetyl]-N-[(2S,3R,4R,5R)-2,3,4,5,6-pentahydroxyhexyl]pyrrolidine-3-carboxamide] |
| 100 to 130% | ≤ 100 nM | COCc1cnc(N2CCC(CCCOc3cc(F)c(CC(=O)N4CC[C@H](C(=O)NC[C@H](O)[C@@H](O)[C@H](O)[C@H](O)CO)C4)c(F)c3)CC2)nc1 [Example 131, (3S)-1-[2-[2,6-difluoro-4-[3-[1-[5-(methoxymethyl)pyrimidin-2-yl]-4-piperidyl]propoxy]phenyl]acetyl]-N-[(2S,3R,4R,5R)-2,3,4,5,6-pentahydroxyhexyl]pyrrolidine-3-carboxamide] |
| 100 to 130% | ≤ 100 nM | O=C(Cc1c(F)cc(OCCCC2CCN(c3ncc(Cl)cn3)CC2)cc1F)N1CC[C@@H](CNC[C@H](O)[C@@H](O)[C@H](O)[C@H](O)CO)C1 [Example 132, 2-[4-[3-[1-(5-chloropyrimidin-2-yl)-4-piperidyl]propoxy]-2,6-difluoro-phenyl]-1-[(3S)-3-[[[(2S,3R,4R,5R)-2,3,4,5,6-pentahydroxyhexyl]amino]methyl]pyrrolidin-1-yl]ethanone] |
| 100 to 130% | ≤ 100 nM | CCOc1cnc(N2CCC(CCCOc3cc(F)c(CC(=O)N4CC[C@@H](CNC[C@H](O)[C@@H](O)[C@H](O)[C@H](O)CO)C4)c(F)c3)CC2)nc1 [Example 134, 2-[4-[3-[1-(5-ethoxypyrimidin-2-yl)-4-piperidyl]propoxy]-2,6-difluoro-phenyl]-1-[(3S)-3-[[[(2S,3R,4R,5R)-2,3,4,5,6-pentahydroxyhexyl]amino]methyl]pyrrolidin-1-yl]ethanone] |
| 100 to 130% | ≤ 100 nM | COCc1cnc(N2CCC(CCCOc3cc(F)c(CC(=O)N4CC[C@@H](CNC[C@H](O)[C@@H](O)[C@H](O)[C@H](O)CO)C4)c(F)c3)CC2)nc1 [Example 135, 2-[2,6-difluoro-4-[3-[1-[5-(methoxymethyl)pyrimidin-2-yl]-4-piperidyl]propoxy]phenyl]-1-[(3S)-3-[[[(2S,3R,4R,5R)-2,3,4,5,6-pentahydroxyhexyl]amino]methyl]pyrrolidin-1-yl]ethanone] |

Reference: US20230061736A1, “GPR119 AGONISTS” (Kallyope, Inc., priority 2019, published 2023)
